Laboratory results published in patent US20230405063A1, “USE OF PROBIOTIC COMPONENT AND PHARMACEUTICAL COMPOSITION CONTAINING PROBIOTIC COMPONENT” (CHENGDU KUACHANGAOPU MEDICAL TECHNOLOGY CO., LTD., priority 2020, published 2023).

How the values were obtained:
breast cancer 4T1 cells [1] = test: Tumor inhibition rate r′10d, r′30d in 4T1 tumor-bearing BALB/c mice (Example 12, Table 18, series A); assay type: in vivo; details: series A modeled mice, intratumoral injection twice at 3-day interval, 50 ul/mouse/time; for Series A r′10d (tumor inhibition rate): 10th day after 1st administration; for Series A r′30d (tumor inhibition rate): 30th day after 1st administration
Method: (§1) BALB/c mice were used as experimental subjects, in which modeled animals were used as series A and unmodeled animals as series B. Breast cancer 4T1 cells were use as modeling cells for modeled animals. 0.25×10^5 cells/animal were injected into the right axilla subcutaneously for transplantation tumor modeling, and the average tumor volume of successfully modeled nude mice was 173.6 mm^3. The modeled animals were randomly divided into 18 groups, with 10 animals in each group, and the drugs according to Table 18 was administered via intratumoral injection. BALB/c mice were additionally taken as experimental subjects without modeling, and randomly divided into 18 groups, with 10 animals in each group, the drugs according to Table 18 was administered via intramuscular injection into the right hind thigh. All the study drugs comprising probiotic components were formulated as aqueous formulations according to the preparation method of Example 1, and the other drugs were formulated as aqueous solutions according to the existing well-known methods. Each group was administered twice at an interval of 3 days, and the dosage was 50 ul/mouse/time.
On the 30th day after the first administration, each group of series A and each group of series B were subcutaneous cell transplantation of 1×10^5 breast cancer 4T1 cells/mouse and 0.2×10^5 fibroblast 3T3 cells/mouse respectively to left anterior axilla and left posterior axilla. The tumor incidence rates of 4T1 cell transplantation (S4T1) and of 3T3 cell transplantation (S3T3) in each group were observed on the 10th day after the cell transplantation, wherein the tumor incidence rate S=(number of tumor-bearing animals/number of cell transplanted animals)×100%.

[2] = system: gastric tumor cells (BGC823); test: Tumor inhibition in BGC823 tumor-bearing nude mice (Example 5, Table 8); assay type: in vivo; details: intratumoral injection once, 150 μl/mouse, 7th day
From the text: (§2) The method for determining the effect of combined drug administration in animal experiments was Burgi method (Burgi Y. Pharmacology; Drug actions and reactions. Cancerres. 1978, 38(2), 284-285). The Burgi method was modified by Zhengjun JIN (Zhengjun JIN, Equal probability and curve and “Q50”, Journal of the Second Shanghai Medical College; 1981, 1, 75-86) with q calculated as: q=EA+B/(EA+EB−EA×EB). In the following examples of the present invention, the combinational pharmaceutical efficacies (drug efficacies) of drug A and drug B co-administration was determined by ratio q of actual pharmaceutical efficacy (drug efficacy)/theoretical pharmaceutical efficacy (drug efficacy) according to Zhengjun JIN method, as follows.
Nude mice were used as experimental subjects, and gastric tumor cells (BGC823) were used as modeling cells, 1×10^5 cells/mouse were injected into the right axilla subcutaneously for transplantation tumor modeling, and the average tumor volume of successfully modeled nude mice was 164.4 mm^3. The model animals were randomly divided into 14 groups, and the drugs according to the pharmacological constitutions in Table 8 were administered via intratumoral injection. Each group was dosed once with an injection volume of 150 μl/mouse; wherein the pharmaceutical compositions of groups 5, 11 were semi-fluid, the pharmaceutical compositions of other groups are liquid. On the 7th day after drug administration, the animals were euthanized, and after dissection, the tumor tissue was taken out to determine the tumor weight, and the tumor inhibition rate (r) was calculated relative to the negative control group. Further, the actual efficacy/expected efficacy ratio q of a drug could also be calculated according to the therapeutic effect (tumor inhibition rate).

breast cancer 4T1 cells [3] = test: Short-term tumor inhibition in 4T1 tumor-bearing BALB/c mice (Example 9, Table 14); assay type: in vivo; details: dosed twice, 7th day after final administration; for tumor inhibition rate rA: series A: intravenous injection; for tumor inhibition rate rB: series B: intratumoral injection
From the text: as §2
BALB/c mice were used as experimental subjects, and breast cancer 4T1 cells were used as modeling cells. 0.5×10^6 cells/mouse were injected into the right axilla subcutaneously for transplantation tumor modeling, and the average tumor volume of successfully modeled nude mice was 160.1 mm^3. The model animals were randomly divided into 21 groups, and the drugs were administered by intravenous injection (series A) and intratumoral injection (series B) according to the drugs and doses in Table 14, respectively. All the drugs administered were aqueous liquids, which were formulated according to the method of Example 1. Each group was dosed twice. On the 7th day after final administration, the animals were euthanized, and the tumor tissues were taken out after dissection to determine the tumor weight, and the tumor inhibition rates rA and rB were calculated relative to the corresponding negative control groups in series A and series B.

lung tumor cells (A549) = test: Tumor inhibition in A549 tumor-bearing nude mice, co-administration (Example 5, Table 7); assay type: in vivo; details: dosed once, 7th day, probiotic component = heat-inactivated Saccharomyces boulardii
From the text: as §2
Nude mice were used as experimental subjects, and lung tumor cells (A549) were used as modeling cells, 1×10^5 cells/mouse were injected into the right axilla subcutaneously for transplantation tumor modeling, and the average tumor volume of successfully modeled nude mice was 153.7 mm^3. The model animals were randomly divided into 18 groups, and the drugs were administered according to the drug components and administration route in Table 7. Each group was dosed once with an injection volume of […]. Wherein, the probiotic component was heat-inactivated Saccharomyces boulardii, and the administration route of group 16 was intra-tumoral injection of probiotic component followed by intra-tumoral injection of 10% arginine about 2 hours later. On the 7th day after drug administration, the animals were euthanized, and after dissection, the tumor tissue was taken out to determine the tumor weight, and the tumor inhibition rate (r) was calculated relative to the negative control group. Further, the actual efficacy/expected efficacy ratio q of a drug could also be calculated according to the therapeutic effect (tumor inhibition rate).

breast cancer 4T1 cells [4] = test: Tumor incidence rate after 4T1 cell transplantation (S4T1) on day 30 (Example 12, Table 18); assay type: in vivo, BALB/c mice; details: cells transplanted on 30th day, observed 10th day after transplantation; for Series A S4T1 (tumor incidence rate of 4T1 cell transplantation): series A modeled mice, intratumoral injection; for Series B S4T1 (tumor incidence rate of 4T1 cell transplantation): series B unmodeled mice, intramuscular injection into right hind thigh
Method: as §1, with “Breast cancer 4T1 cells were use as modeling cells for modeled animals. 0.25×10^5 cells/animal were injected into the right axilla subcutaneously for transplantation tumor modeling, and the average tumor volume of successfully modeled nude mice was 173.6 mm^3.” left out

[5] = system: outer lateral muscle mass of the right leg; test: Local effect on normal muscle tissue, area of abnormal regions, BALB/c mice (Example 9, Table 15); assay type: in vivo; details: dosed once into muscle, 100 ul/mouse, 7th day
Method: BALB/c mice were used as experimental subjects, and the model animals were randomly divided into 4 groups, having 6 animals in each group. The drugs were administered according to Table 15. […] On the 7th day after drug administration, the animals were euthanized. The specimens of the outer lateral muscle mass of the right leg were taken out by autopsy, and perform a general pathological analysis. The sections were measured for the area of abnormal regions such as necrosis and nodules that distinguished from normal muscle.

[6] = intratumoral injection, '+' = arginine injected about 2 hours later

Row | SMILES | Series A r′10d (tumor inhibition rate) (breast cancer 4T1 cells [1]) [%] | Series A r′30d (tumor inhibition rate) (breast cancer 4T1 cells [1]) [%] | Tumor inhibition rate r [2] [%] | Tumor weight (x ± s) [2] [g] | tumor inhibition rate rA (breast cancer 4T1 cells [3]) [%] | tumor inhibition rate rB (breast cancer 4T1 cells [3]) [%] | Tumor inhibition rate r (lung tumor cells (A549); [6]) [%] | Tumor weight (x ± s) (lung tumor cells (A549); [6]) [g] | Tumor inhibition rate r (lung tumor cells (A549); intravenous injection) [%] | Tumor weight (x ± s) (lung tumor cells (A549); intravenous injection) [g] | Series A S4T1 (tumor incidence rate of 4T1 cell transplantation) (breast cancer 4T1 cells [4]) [%] | Series B S4T1 (tumor incidence rate of 4T1 cell transplantation) (breast cancer 4T1 cells [4]) [%] | Area of abnormal regions [5] [mm^2]
1 | O=c1[nH]cc(F)c(=O)[nH]1 [1% 5-fluorouracil, 5-fluorouracil] | 38.5 | 6.1 | 41.4 | 0.132 ± 0.069 | 38.1 | 44.1 | 46.6 | 0.116 ± 0.076 | 41.3 | 0.122 ± 0.065 | 100 | 100 | –
2 | CCO [75% ethanol, ethanol] | 42.1 | 3.2 | – | – | 2.8 | 21.3 | 33.7 | 0.145 ± 0.084 | 2.7 | 0.203 ± 0.095 | 100 | 100 | 33.16 ± 13.44
